In the test the target is T1, drMfsd2a (Danio rerio isoform B Mfsd2a) (Danio rerio, UniProt Q6DEJ6, N214Q/N225Q/N509Q).
T1 construct: gene mfsd2ab; recombinant in Sf-9 insect cells, N-terminal 10xHis tag removed by TEV; truncated at D22 and D509; DDM-purified
T1 sequence (Q6DEJ6 22-509 N214Q/N225Q/N509Q): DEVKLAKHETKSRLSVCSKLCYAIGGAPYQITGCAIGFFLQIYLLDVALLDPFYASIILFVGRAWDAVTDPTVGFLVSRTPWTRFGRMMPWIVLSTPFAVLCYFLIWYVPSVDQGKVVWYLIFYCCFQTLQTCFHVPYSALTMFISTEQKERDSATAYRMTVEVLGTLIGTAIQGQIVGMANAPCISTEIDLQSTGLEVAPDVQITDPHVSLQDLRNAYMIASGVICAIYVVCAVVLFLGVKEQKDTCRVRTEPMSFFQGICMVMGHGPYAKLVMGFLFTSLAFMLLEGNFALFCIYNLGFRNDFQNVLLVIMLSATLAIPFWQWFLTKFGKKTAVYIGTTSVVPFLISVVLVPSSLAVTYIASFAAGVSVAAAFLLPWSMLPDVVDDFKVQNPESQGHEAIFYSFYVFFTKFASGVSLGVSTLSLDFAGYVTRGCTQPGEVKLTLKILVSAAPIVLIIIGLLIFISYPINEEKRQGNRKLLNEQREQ
In words: single-particle cryo-EM structures of Fab complex. Particulars: co-purified endogenous lipid; identity modelled into lipid-like densities at four positions (1A, 1B, 2B, 3C); inward-facing; pH 8.0, 150 mM NaCl, 0.02% DDM. Type of test: binding.

Take `CC/C=C\C/C=C\C/C=C\CCCCCCCC(=O)OC[C@@H](O)COP(=O)([O-])OCC[N+](C)(C)C` [ALA-LPC]: the “single-particle cryo-EM structures of Fab complex” value is “We therefore modeled ALA-LPC into the four distinct lipid-like densities”.
